Measured values from patent US7893077B2, “Bisaryl-sulfonamides” (Amgen Inc., priority 2004, dated 2011).

Molecular target: T1, PPARγ (Homo sapiens, UniProt P37231)
T1 construct: made in house
T1 sequence (P37231 1-505): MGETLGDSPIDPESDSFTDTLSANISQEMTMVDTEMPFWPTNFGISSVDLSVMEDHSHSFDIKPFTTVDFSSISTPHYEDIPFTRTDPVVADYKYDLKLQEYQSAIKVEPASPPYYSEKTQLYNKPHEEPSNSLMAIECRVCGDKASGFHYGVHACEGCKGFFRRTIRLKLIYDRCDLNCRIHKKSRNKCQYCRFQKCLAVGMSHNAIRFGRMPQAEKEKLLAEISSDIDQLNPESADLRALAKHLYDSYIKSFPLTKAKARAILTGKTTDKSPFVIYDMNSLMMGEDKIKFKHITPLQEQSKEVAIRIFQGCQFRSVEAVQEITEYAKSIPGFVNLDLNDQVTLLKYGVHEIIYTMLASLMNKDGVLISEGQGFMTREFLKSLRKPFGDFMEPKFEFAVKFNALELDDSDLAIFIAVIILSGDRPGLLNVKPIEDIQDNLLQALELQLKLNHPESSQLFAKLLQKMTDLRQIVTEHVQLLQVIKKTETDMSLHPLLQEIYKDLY
Experiment: PPARγ ligand binding assay utilizing [3H]-BRL 49653 as the radioligand (filtration)
Details: concentration required to reduce by 50% the specific binding of [3H]-BRL 49653
Text: The compounds of the present invention can be evaluated for modulation of the PPARγ receptor using assays such as those described in Jiang, et al., Nature 391:82-86 (1998), Ricote, et al., Nature 391:79-82 (1998) and Lehmann, et al., J. Biol. Chem. 270(12): 12953-12956 (1995). Alternatively, the compounds can be evaluated for their ability to displace radiolabeled BRL 49653 from a PPARγ-GST fusion protein as follows:
PPARγ-GST fusion protein (prepared according to standard procedures), [^3H]-BRL 49653 having 50 Ci/mmol specific activity, Polyfiltronics Unifilter 350 filtration plate and glutathione-Sepharose® beads (from Pharmacia: washed twice with 10× binding buffer in which BSA and DTI can be left out).
Binding buffer (10 mM Tris-HCl, pH 8.0, 50 mM KCl, 10 mM DTT, 0.02% BSA and 0.0 1% NP-40) is added in 80-μL amounts to the wells of the filtration plate. The test compound is then added in 10 μL of DMSO. The PPARγ-GST fusion protein and radiolabeled BRL compound are premixed in binding buffer containing 10 mM DTT and added in 10-μL amounts to the wells of the plate to provide final concentrations of 1 µg/well of PPARγ-GST fusion protein and 10 nM [^3H]-BRL 49653 compound. The plate is incubated for 15 min. Glutathione-agarose bead is added in 50 μL of binding buffer, and the plate is vigorously shaken for one hour. The plate is washed four times with 200 μL/well of binding buffer (without BSA and DTT). The bottom of the plate is sealed and 200 μL/well of scintillation cocktail is added. The top of the plate is then sealed and the radioactivity is determined.
IC50 values are defined as the concentration of test compounds required to reduce by 50% the specific binding of [^3H]-BRL 49653 and are represented by (+)<30 μM; (++)<10 μM; (+++)<1 μM.

Compound	IC50 [nM]
CCCCCc1nc(NS(=O)(=O)c2ccc(Cl)cc2)ncc1Sc1ccc(S(=O)(=O)N2CCCCC2)cc1 [Compound 48, 4-Chloro-N-{4-pentyl-5-[4-(piperidine-1-sulfonyl) -phenylsulfanyl]-pyrimidin-2-yl}-benzenesulfonamide]	< 1000
Cc1nc(NS(=O)(=O)c2ccc(Cl)cc2Cl)ncc1Sc1ccc(S(=O)(=O)N2CCCCC2)cc1 [Compound 49, 2,4-Dichloro-N-{4-methyl-5-[4-(piperidine-1-sulfonyl) -phenylsulfanyl]-pyrimidin-2-yl}-benzenesulfonamide]	< 10000
Cc1nc(NS(=O)(=O)c2ccc(C(F)(F)F)cc2Cl)ncc1Sc1ccc(S(=O)(=O)N2CCCCC2)cc1 [Compound 50, 2-Chloro-N-{4-methyl-5-[4-(piperidine-1-sulfonyl) -phenylsulfanyl]-pyrimidin-2-yl}-4-trifluoromethyl-benzenesulfonamide]	< 10000
Cc1nc(NS(=O)(=O)c2ccc(Cl)cc2)ncc1Sc1ccc(S(=O)(=O)N2CCCCC2)cc1 [Compound 51, 4-Chloro-N-{4-methyl-5-[4-(piperidine-1-sulfonyl) -phenylsulfanyl]-pyrimidin-2-yl}-benzenesulfonamide]	< 10000
Cc1nc(NS(=O)(=O)c2ccc(Cl)cc2Cl)ncc1Sc1ccc(S(=O)(=O)N2CCOCC2)cc1 [Compound 52, 2,4-Dichloro-N-{4-methyl-5-[4-(morpholine-4-sulfonyl) -phenylsulfanyl]-pyrimidin-2-yl}-benzenesulfonamide]	< 10000
Cc1nc(NS(=O)(=O)c2ccc(C(F)(F)F)cc2Cl)ncc1Sc1ccc(S(=O)(=O)N2CCOCC2)cc1 [Compound 53, 2-Chloro-N-{4-methyl-5-[4-(morpholine-4-sulfonyl) -phenylsulfanyl]-pyrimidin-2-yl}-4-trifluoromethyl-benzenesulfonamide]	< 10000
Cc1nc(NS(=O)(=O)c2ccc(Cl)cc2Cl)ncc1Oc1ccc(S(=O)(=O)N2CCOCC2)cc1 [Compound 54, 2,4-Dichloro-N-{4-methyl-5-[4-(morpholine-4-sulfonyl) -phenoxy]-pyrimidin-2-yl}-benzenesulfonamide]	< 30000
Cc1nc(NS(=O)(=O)c2ccc(C(F)(F)F)cc2Cl)ncc1Oc1ccc(S(=O)(=O)N2CCOCC2)cc1 [Compound 55, 2-Chloro-N-{4-methyl-5-[4-(morpholine-4-sulfonyl) -phenoxy]-pyrimidin-2-yl}-4-trifluoromethyl-benzenesulfonamide]	< 10000
Cc1nc(NS(=O)(=O)c2ccc(Cl)cc2)ncc1Oc1ccc(S(=O)(=O)N2CCOCC2)cc1 [Compound 56, 4-Chloro-N-{4-methyl-5-[4-(morpholine-4-sulfonyl) -phenoxy]-pyrimidin-2-yl}-benzenesulfonamide]	< 30000
Cc1nc(NS(=O)(=O)c2ccc(Cl)cc2Cl)ncc1Sc1ccc2ccccc2c1 [Compound 57, 2,4-Dichloro-N-[4-methyl-5-(naphthalen-2-ylsulfanyl)-pyrimidin-2-yl]-benzenesulfonamide]	< 10000
Cc1nc(NS(=O)(=O)c2ccc(C(F)(F)F)cc2Cl)ncc1Sc1ccc2ccccc2c1 [Compound 59, 2-Chloro-N-[4-methyl-5-(naphthalen-2-ylsulfanyl)-pyrimidin-2-yl]-4-trifluoromethyl-benzenesulfonamide]	< 10000
Cc1nc(NS(=O)(=O)c2ccc(Cl)cc2Cl)ncc1Oc1ccc(Cl)c(Cl)c1 [Compound 60, 2,4-Dichloro-N-[5-(3,4-dichloro-phenoxy)-4-methyl-pyrimidin-2-yl]-benzenesulfonamide]	< 10000
Cc1cc(S(=O)(=O)Nc2ccc(Sc3ccc(S(=O)(=O)N4CCCCC4)cc3)c(C)n2)c(Cl)cc1Cl [Compound 61, 2,4-Dichloro-5-methyl-N-{6-methyl-5-[4-(piperidine-1-sulfonyl)-phenylsulfanyl]-pyridin-2-yl}-benzenesulfonamide]	< 1000
Cc1cc(S(=O)(=O)Nc2cc(C)c(Sc3ccc(S(=O)(=O)N4CCCCC4)cc3)cn2)c(Cl)cc1Cl [Compound 62, 2,4-Dichloro-5-methyl-N-{4-methyl-5-[4-(piperidine-1-sulfonyl)-phenylsulfanyl]-pyridin-2-yl}-benzenesulfonamide]	< 1000
Cc1cc(NS(=O)(=O)c2ccc(Cl)cc2Cl)ncc1Sc1ccc(S(=O)(=O)N2CCCCC2)cc1 [Compound 63, 2,4-Dichloro-N-{4-methyl-5-[4-(piperidine-1-sulfonyl) -phenylsulfanyl]-pyridin-2-yl}-benzenesulfonamide]	< 1000
Cc1cc(NS(=O)(=O)c2ccc(C(F)(F)F)cc2Cl)ncc1Sc1ccc(S(=O)(=O)N2CCCCC2)cc1 [Compound 64, 2-Chloro-N-{4-methyl-5-[4-(piperidine-1-sulfonyl) -phenylsulfanyl]-pyridin-2-yl}-4-trifluoromethyl-benzenesulfonamide]	< 1000
Cc1nc(NS(=O)(=O)c2ccc(Cl)cc2Cl)ccc1Sc1ccc(S(=O)(=O)N2CCCCC2)cc1 [Compound 65, 2,4-Dichloro-N-{6-methyl-5-[4-(piperidine-1-sulfonyl) -phenylsulfanyl]-pyridin-2-yl}-benzenesulfonamide]	< 1000

The next lines start with the values.

IC50 [nM]	Compound
< 1000	Cc1nc(NS(=O)(=O)c2ccc(C(F)(F)F)cc2Cl)ccc1Sc1ccc(S(=O)(=O)N2CCCCC2)cc1 [Compound 66, 2-Chloro-N-{6-methyl-5-[4-(piperidine-1-sulfonyl) -phenylsulfanyl]-pyridin-2-yl}-4-trifluoromethyl-benzenesulfonamide]
< 1000	Cc1cc(S(=O)(=O)Nc2ccc(Sc3ccc(S(=O)(=O)N4CCCCC4)cc3)cn2)c(Cl)cc1Cl [Compound 67, 2,4-Dichloro-5-methyl-N-{5-[4-(piperidine-1-sulfonyl) -phenylsulfanyl]-pyridin-2-yl}-benzenesulfonamide]
< 1000	O=S(=O)(Nc1ccc(Sc2ccc(S(=O)(=O)N3CCCCC3)cc2)cn1)c1ccc(Cl)cc1Cl [Compound 68, 2,4-Dichloro-N-{5-[4-(piperidine-1-sulfonyl)-phenylsulfanyl]-pyridin-2-yl}-benzenesulfonamide]
< 1000	O=S(=O)(Nc1ccc(Sc2ccc(S(=O)(=O)N3CCCCC3)cc2)cn1)c1ccc(C(F)(F)F)cc1Cl [Compound 69, 2-Chloro-N-{5-[4-(piperidine-1-sulfonyl)-phenylsulfanyl]-pyridin-2-yl}-4-trifluoromethyl-benzenesulfonamide]
< 1000	COC(=O)c1nc(NS(=O)(=O)c2ccc(Cl)cc2Cl)ccc1Sc1ccc(S(=O)(=O)N2CCCCC2)cc1 [Compound 70, 6-(2,4-Dichloro-benzenesulfonylamino)-3-[4-(piperidine-1-sulfonyl)-phenylsulfanyl]-pyridine-2-carboxylic acid methyl ester]
< 10000	O=C(O)c1nc(NS(=O)(=O)c2ccc(Cl)cc2Cl)ccc1Sc1ccc(S(=O)(=O)N2CCCCC2)cc1 [Compound 71, 6-(2,4-Dichloro-benzenesulfonylamino)-3-[4-(piperidine-1-sulfonyl)-phenylsulfanyl]-pyridine-2-carboxylic acid]
< 1000	CON(C)C(=O)c1nc(NS(=O)(=O)c2ccc(Cl)cc2Cl)ccc1Sc1ccc(S(=O)(=O)N2CCCCC2)cc1 [Compound 72, 6-(2,4-Dichloro-benzenesulfonylamino)-3-[4-(piperidine-1-sulfonyl)-phenylsulfanyl]-pyridine-2-carboxylic acid methoxy-methyl-amide]
< 1000	CCCC(=O)c1nc(NS(=O)(=O)c2ccc(Cl)cc2Cl)ccc1Sc1ccc(S(=O)(=O)N2CCCCC2)cc1 [Compound 73, N-{6-Butyryl-5-[4-(piperidine-1-sulfonyl)-phenylsulfanyl]-pyridin-2-yl}-2,4-dichloro-benzenesulfonamide]
< 1000	Cc1cc(NS(=O)(=O)c2ccc(C(F)(F)F)cc2Cl)ncc1Sc1ccc(S(=O)(=O)N2CCOCC2)cc1 [Compound 74, 2-Chloro-N-{4-methyl-5-[4-(morpholine-4-sulfonyl) -phenylsulfanyl]-pyridin-2-yl}-4-trifluoromethyl-benzenesulfonamide]
